One data set has as its system mouse lung cancer Lewis. In words: Activity against mouse grafted lung cancer Lewis. The note with it: for Inhibition rate (%) / Tumor weight: Lewis; for Tumor weight: X ± SD, n = 10. Format: in vivo, Kunming mice. How it is done: The experiments were performed according to “Guideline for New Drugs (Western medicines) in Pre-clinical Stages” issued by Bureau of Drug Policy & Administration of the People's Republic of China, and the relevant methods in “Methodology of Pharmaceutical Experiments”, Xu Shuyun et al. ed. 120 male Kunming mice weighting […] were allowed to grow 3 days. No abnormality was observed. The mice were routinely inoculated in oxter with mouse sarcoma S-180, and weighted 4 hrs. after inoculation. The mice were randomly divided into 12 groups, 10 mice/group. Group 1 was given 0.3 ml of physiological saline as negative control; Group 2 was given 5-FU as positive control, 0.6 mg/mouse; Group 3 was given hydroxycamptothecine as positive control, 0.02 mg/mouse. Groups 4, 5 and 6 were injected with 10% Compound 6, 0.4 ml/mouse, 0.2 ml/mouse, and 0.1 ml/mouse, respectively. Groups 7, 8 and 9 were injected with 10% Compound 8, 0.4 ml/mouse, 0.2 ml/mouse, and 0.1 ml/mouse, respectively. Groups 10, 11, and 12 were injected with 10% Compound 20, 0.4 ml/mouse, 0.2 ml/mouse, and 0.1 ml/mouse, respectively. The tested compounds were administered on the next day after inoculation, once a day on alternate days, 6 doses totally administered. On the next day after the end dose, the mice were weighed and sacrificed. After the tumor was excised, body weight and tumor weight were recorded. The tumor inhibition rate was calculated based on the following formula: [(average tumor weight of the control groups−average tumor weight of the experimental groups)/average tumor weight of the control groups]×100%. The data was processed statistically. The above experiments were repeated three times.
The experiments were identical with the experiments for activity against mouse grafted sarcoma S-180, except the following:
(1) the tumor cell line inoculated was mouse lung cancer Lewis;
(2) Compound 6, Compound 8 and Compound 21 were not tested for their activity;
(3) the mice were divided into six groups.

Data set [1] deals with influenza A virus (Jifang 90-15). In words: microbe, parasite or virus in culture. Format: cell-based.
Data set [2] is described as follows: Solubility in water (observation). Format: physicochemical.

Counter-ions that a name gives are not always drawn.

Consider `CC(C)C1CC23OC1(O)C/C(=C\Nc1ccc(O)cc1)C2CCC3C` (stereo not drawn) [Compound 6, Curcumol p-hydroxy aniline hydrochloride], for which the “Inhibition rate (%)” value in the data set on mouse lung cancer Lewis (first experiment, 10 mg/kg) came to 29.5%; in the data set on mouse lung cancer Lewis (first experiment, 20 mg/kg) it was 42.6%; in the data set on mouse lung cancer Lewis (first experiment, 40 mg/kg), 51.7%; in the data set on mouse lung cancer Lewis (second experiment, 10 mg/kg), 25.3%; with mouse lung cancer Lewis (second experiment, 20 mg/kg), 44.4%; with mouse lung cancer Lewis (second experiment, 40 mg/kg) it was 50.6%. In addition, the “Inhibition rate (%)” value in the data set with mouse lung cancer Lewis (third experiment, 10 mg/kg) worked out at 33.3%; in the data set with mouse lung cancer Lewis (third experiment, 20 mg/kg) it was 47.4%; in the data set on mouse lung cancer Lewis (third experiment, 40 mg/kg), 52.6%. Besides, the “Tumor weight” value in the data set on mouse lung cancer Lewis (first experiment, 10 mg/kg) was found to be 2.10 ± 0.37 g; in the data set with mouse lung cancer Lewis (first experiment, 20 mg/kg), 1.71 ± 0.29 g; in the data set with mouse lung cancer Lewis (first experiment, 40 mg/kg) it was 1.44 ± 0.31 g; with mouse lung cancer Lewis (second experiment, 10 mg/kg) it was 1.80 ± 0.37 g; with mouse lung cancer Lewis (second experiment, 20 mg/kg) it was 1.34 ± 0.29 g; in the data set on mouse lung cancer Lewis (second experiment, 40 mg/kg), 1.19 ± 0.31 g. Further, the “Tumor weight” value is on record as 1.80 ± 0.37 g in the data set with mouse lung cancer Lewis (third experiment, 10 mg/kg); 1.42 ± 0.29 g with mouse lung cancer Lewis (third experiment, 20 mg/kg); 1.28 ± 0.31 g in the data set with mouse lung cancer Lewis (third experiment, 40 mg/kg). Besides, the “inhibitory effect against mouse lung cancer Lewis” value was found to be 51.6% in the data set on mouse lung cancer Lewis (first of three concentrations (40 mg/kg)), 44.8% with mouse lung cancer Lewis (second of three concentrations (20 mg/kg)) and 29.4% with mouse lung cancer Lewis (third of three concentrations (10 mg/kg)).
For `C=C1CC2(OS(=O)(=O)[O-])OC3(CC2C(C)C)C(C)CCC13.[Na+]` (stereo not drawn) [Compound 21, Curcumol sodium sulfonate], 47.7 µg/mL corresponded to half-maximal inhibition in data set [1] (Influenza A virus, CPE in MDCK cells) (IC50). Moreover, in data set [1] (SI = TC50/IC50), the “SI, influenza A virus” value is recorded as 20.96. In addition, the “solubility in water (in words)” value in data set [2] is listed as “soluble in water”.

The values above are taken from patent publication US7700584B2 (Hangzhou Minsheng Pharmaceuticals Co., Ltd., priority 2004, dated 2010).
